According to the supplement of paper PMC10920090:

Key:
MDA-MB-231 [1] = assay: drug sensitivity score (DSS), cytotoxicity CellTox Green; higher = more cytotoxic; extreme values may be limits of the assay; conditions: 72 h
MDA-MB-231 [2] = assay: drug sensitivity score (DSS), cell viability CellTiter-Glo; higher = more sensitive; extreme values may be limits of the assay; conditions: 72 h
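For drug sensitivity score (DSS), cytotoxicity CellTox Green in this document: DSS summarises each dose–response curve by combining IC50, EC50, maximal inhibition and efficacy across drug concentrations.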

SMILES | drug sensitivity score (MDA-MB-231 [1]; shRNA: shPPFIA1_1) | drug sensitivity score (MDA-MB-231 [1]; shRNA: shScramble) | drug sensitivity score (MDA-MB-231 [2]; shRNA: shPPFIA1_1) | drug sensitivity score (MDA-MB-231 [2]; shRNA: shScramble)
NS(=O)(=O)NCCNc1nonc1/C(=N/O)Nc1ccc(F)c(Br)c1 [Epacadostat] | 0 DSS | 0 DSS | 0 DSS | 0 DSS
CCCNC(=O)Nc1ccc(Oc2ncnc3cc(OC)c(OC)cc23)cc1Cl [KRN-633] | 0 DSS | 0 DSS | 0 DSS | 0.9 DSS
CCc1cncnc1N1CCN(Cc2nc3ccc(C(F)(F)F)cc3[nH]2)CC1 | 0.6 DSS | 0 DSS | 0 DSS | 1.3 DSS
CN(C)/N=N/c1[nH]cnc1C(N)=O [Dacarbazine] | 0 DSS | 0 DSS | 0 DSS | 0 DSS
C[C@]12CC[C@@H]3c4ccc(OC(=O)N(CCCl)CCCl)cc4CC[C@H]3[C@@H]1CC[C@@H]2O [Estramustine] | 0 DSS | 0 DSS | 0 DSS | 0 DSS
CC(C)(C)c1nc(-c2cccc(NS(=O)(=O)c3c(F)cccc3F)c2F)c(-c2ccnc(N)n2)s1 [Dabrafenib] | 0.9 DSS | 0.9 DSS | 0 DSS | 0 DSS
CNC(=O)c1ccc(N2C(=S)N(c3ccc(C#N)c(C(F)(F)F)c3)C(=O)C23CCC3)cc1F [RD162] | 0.8 DSS | 0 DSS | 0 DSS | 0 DSS
CCNC(=O)C[C@@H]1N=C(c2ccc(Cl)cc2)c2cc(OC)ccc2-n2c(C)nnc21 | 0 DSS | 0 DSS | 0 DSS | 6.2 DSS
COc1cc([C@@H]2c3cc4c(cc3[C@@H](O[C@@H]3O[C@@H]5CO[C@@H](C)O[C@H]5[C@H](O)[C@H]3O)[C@H]3COC(=O)[C@H]23)OCO4)cc(OC)c1O [Etoposide] | 1.6 DSS | 1.8 DSS | 0 DSS | 2 DSS
CCCCCOC(=O)Nc1nc(=O)n([C@@H]2O[C@H](C)[C@@H](O)[C@H]2O)cc1F [Capecitabine] | 0 DSS | 0 DSS | 0 DSS | 0 DSS
Cc1c(Cn2c(C)nc3c(C(=O)O)cc(N4CCOCC4)cc32)cccc1C(F)(F)F | 0 DSS | 0 DSS | 3.6 DSS | 2.8 DSS
C[C@H]1Oc2cc(cnc2N)-c2c(nn(C)c2C#N)CN(C)C(=O)c2ccc(F)cc21 | 0 DSS | 0 DSS | 0 DSS | 0 DSS
O=C(NOCC1CC1)c1ccc(F)c(F)c1Nc1ccc(I)cc1Cl | 6.2 DSS | 8.5 DSS | 1.8 DSS | 7.7 DSS
COC(=O)c1ccc2c(c1)[nH]c1ncnc(NCCCN3CCCCC3)c12 [UM729] | 0 DSS | 0 DSS | 0 DSS | 0 DSS
Cc1nc(N)sc1-c1ccnc(Nc2ccc(N3CCOCC3)cc2)n1 [CYC-116] | 0 DSS | 0 DSS | 0.2 DSS | 4.8 DSS
C[C@H]1C[C@@H]2[C@H]([C@@H](O)C[C@@]3(C)[C@H]2CC[C@]3(O)C(=O)CO)[C@@]2(C)C=CC(=O)C=C12 [Methylprednisolone] | 0 DSS | 0 DSS | 0 DSS | 0 DSS
Cc1ccc(NC(=O)c2ccc(CN3CCN(C)CC3)cc2)cc1Nc1nc(-c2cccnc2)cs1 [Masitinib] | 0.2 DSS | 0.1 DSS | 0.2 DSS | 2.9 DSS
CC(O)(CS(=O)(=O)c1ccc(F)cc1)C(=O)Nc1ccc(C#N)c(C(F)(F)F)c1 (stereo not given) [Bicalutamide] | 0 DSS | 0 DSS | 0 DSS | 0.2 DSS
O=C1NC(=O)[C@@H](c2cn3c4c(cccc24)CCC3)[C@@H]1c1c[nH]c2ccccc12 [Tivantinib] | 1.7 DSS | 0.5 DSS | 4.8 DSS | 3.8 DSS
CS(=O)(=O)N1CCN(Cc2cc3nc(-c4cccc5[nH]ncc45)nc(N4CCOCC4)c3s2)CC1 [Pictilisib] | 0 DSS | 0 DSS | 0 DSS | 2.9 DSS
CNC(=O)c1nn(C)c2c1C(C)(C)Cc1cnc(Nc3ccc(N4CCN(C)CC4)cc3)nc1-2 [Milciclib] | 0.3 DSS | 0 DSS | 0.9 DSS | 5.1 DSS
c1ccc([C@H]2CN3CCSC3=N2)cc1 [Levamisole] | 0 DSS | 0 DSS | 0 DSS | 0 DSS

SMILES | drug sensitivity score (MDA-MB-231 [1]; shRNA: shPPFIA1_1) | drug sensitivity score (MDA-MB-231 [1]; shRNA: shScramble) | drug sensitivity score (MDA-MB-231 [2]; shRNA: shPPFIA1_1) | drug sensitivity score (MDA-MB-231 [2]; shRNA: shScramble)
O=C(Nc1cccc(NC(=O)c2cccc(O)c2O)c1)c1cccc(O)c1O [MST-312] | 0 DSS | 0 DSS | 8.6 DSS | 7.6 DSS
CCCCC(=O)OCC(=O)[C@]1(O)Cc2c(O)c3c(c(O)c2[C@@H](O[C@H]2C[C@H](NC(=O)C(F)(F)F)[C@H](O)[C@H](C)O2)C1)C(=O)c1c(OC)cccc1C3=O [Valrubicin] | 0 DSS | 0 DSS | 0.8 DSS | 7 DSS
CC(=O)O[C@]1(C(C)=O)CC[C@H]2[C@@H]3C=C(C)C4=CC(=O)CC[C@]4(C)[C@H]3CC[C@@]21C [Megestrol acetate] | 0 DSS | 0 DSS | 0 DSS | 0 DSS
Cc1nc(Nc2ncc(C(=O)Nc3c(C)cccc3Cl)s2)cc(N2CCN(CCO)CC2)n1 [Dasatinib] | 0 DSS | 0 DSS | 0 DSS | 9.3 DSS
Clc1ccccc1C(c1ccccc1)(c1ccccc1)n1cccn1 [TRAM-34] | 0 DSS | 0 DSS | 0 DSS | 0 DSS
O=NN(CCCl)C(=O)NCCCl [Carmustine] | 0 DSS | 0 DSS | 0 DSS | 0 DSS
Cc1c2oc3c(C)ccc(C(=O)N[C@@H]4C(=O)N[C@H](C(C)C)C(=O)N5CCC[C@H]5C(=O)N(C)CC(=O)N(C)[C@@H](C(C)C)C(=O)O[C@@H]4C)c3nc-2c(C(=O)N[C@@H]2C(=O)N[C@H](C(C)C)C(=O)N3CCC[C@H]3C(=O)N(C)CC(=O)N(C)[C@@H](C(C)C)C(=O)O[C@@H]2C)c(N)c1=O [Dactinomycin] | 14.9 DSS | 12.4 DSS | 14.1 DSS | 25.9 DSS
Oc1ncc(N(CCCl)CCCl)c(O)n1 [Uramustine] | 0 DSS | 0 DSS | 0 DSS | 0 DSS
NCC(=O)Nc1ccc(-n2nc(C(F)(F)F)cc2-c2ccc3c(ccc4ccccc43)c2)cc1 | 8 DSS | 7.3 DSS | 5 DSS | 8.7 DSS
CCC(C)n1ncn(-c2ccc(N3CCN(c4ccc(OCC5COC(Cn6cncn6)(c6ccc(Cl)cc6Cl)O5)cc4)CC3)cc2)c1=O (stereo not given) [Itraconazole] | 0 DSS | 0 DSS | 4.8 DSS | 5.6 DSS
O=C(c1ccc(OCCN2CCCCC2)cc1)c1c(-c2ccc(O)cc2)sc2cc(O)ccc12 [Raloxifene] | 0.4 DSS | 0 DSS | 3.5 DSS | 3.1 DSS
CCCOc1ccn2c(C(C)=O)cc(-c3ccccc3S(C)(=O)=O)c2c1 [GSK2801] | 0 DSS | 0 DSS | 0 DSS | 0 DSS
O=NN(CCCl)C(=O)NC1CCCCC1 [Lomustine] | 0 DSS | 0 DSS | 0 DSS | 0 DSS
COc1ccc(Cl)c(Nc2nc3ccccc3nc2NS(=O)(=O)c2cccc(NC(=O)C(C)(C)N)c2)c1 [Pilaralisib] | 0.9 DSS | 0 DSS | 0 DSS | 0.9 DSS
O=C(Nc1cccc(Cl)c1)Nc1ncc(CCNc2ncnc3ccsc23)s1 [SNS-314] | 0 DSS | 0 DSS | 0 DSS | 0 DSS
CCc1cc(Nc2nccc(-c3c(-c4ccc(OC)c(C(=O)Nc5c(F)cccc5F)c4)nc4ccccn34)n2)c(OC)cc1N1CCC(N2CCN(S(C)(=O)=O)CC2)CC1 | 0 DSS | 0 DSS | 2.9 DSS | 2.4 DSS
Oc1c2ccccc2c2c3c(cccc13)N=N2 | 0 DSS | 0 DSS | 0 DSS | 0.5 DSS
CC(C)Cn1cnc2c(N)nc3ccccc3c21 [Imiquimod] | 0.9 DSS | 0 DSS | 0 DSS | 2.7 DSS
O=C1CCC(N2C(=O)c3ccccc3C2=O)C(=O)N1 (stereo not given) [Thalidomide] | 0 DSS | 0 DSS | 0 DSS | 0 DSS
CCN(CC)CCNC(=O)c1c(C)[nH]c(/C=C2\C(=O)Nc3ccc(F)cc32)c1C [Sunitinib] | 0 DSS | 0 DSS | 0 DSS | 1.1 DSS
O=C(CCCCCCNC(=O)c1cnc(N(c2ccccc2)c2ccccc2)nc1)NO [Rocilinostat] | 6.7 DSS | 1 DSS | 2.1 DSS | 3.5 DSS
CCCCNc1ncc(C(=O)NCc2ccc(-n3ccnc3)cc2)c(NC2CCC(O)CC2)n1 (stereo not given) [UNC2881] | 0 DSS | 0 DSS | 0 DSS | 0.5 DSS

SMILES | drug sensitivity score (MDA-MB-231 [1]; shRNA: shPPFIA1_1) | drug sensitivity score (MDA-MB-231 [1]; shRNA: shScramble) | drug sensitivity score (MDA-MB-231 [2]; shRNA: shPPFIA1_1) | drug sensitivity score (MDA-MB-231 [2]; shRNA: shScramble)
N#CC1(c2ccc(NC(=O)c3cccnc3NCc3ccncc3)cc2)CCCC1 [Apatinib] | 0 DSS | 0 DSS | 0 DSS | 0 DSS
C#Cc1cccc(Nc2ncnc3cc4c(cc23)OCCOCCOCCO4)c1 [Icotinib] | 0 DSS | 0 DSS | 6.2 DSS | 3 DSS
CCn1c(-c2nonc2N)nc2cnc(Oc3cccc(NC(=O)c4ccc(OCCN5CCOCC5)cc4)c3)cc21 | 0 DSS | 0 DSS | 0 DSS | 1.5 DSS
Cn1ncnc1[C@H]1c2n[nH]c(=O)c3cc(F)cc(c23)N[C@@H]1c1ccc(F)cc1 [Talazoparib] | 0 DSS | 0 DSS | 0 DSS | 0.4 DSS
Nc1ncn([C@@H]2O[C@H](CO)[C@@H](O)[C@H]2O)c(=O)n1 [Azacitidine] | 0 DSS | 0 DSS | 0 DSS | 1.1 DSS
CC[C@@H]1C(=O)OC[C@@H]1Cc1cncn1C [Pilocarpine] | 0 DSS | 0 DSS | 0 DSS | 0 DSS
CC(=O)c1c(C)c2cnc(Nc3ccc(N4CCNCC4)cn3)nc2n(C2CCCC2)c1=O [Palbociclib] | 0 DSS | 0 DSS | 0 DSS | 2.4 DSS
O=C(/C=C\n1cnc(-c2cc(C(F)(F)F)cc(C(F)(F)F)c2)n1)NNc1ccccn1 [Verdinexor] | 4.4 DSS | 4.2 DSS | 0 DSS | 5.7 DSS
C=CC(=O)Nc1cccc(Nc2nc(Nc3ccc(N4CCN(C(C)=O)CC4)cc3OC)ncc2C(F)(F)F)c1 [Rociletinib] | 0 DSS | 0 DSS | 0 DSS | 2.8 DSS
NC(=O)c1ccc(I)c([N+](=O)[O-])c1 [Iniparib] | 0 DSS | 0 DSS | 0 DSS | 0 DSS
CC[C@H](C)C(=O)O[C@H]1C[C@@H](C)C=C2C=C[C@H](C)[C@H](CC[C@@H]3C[C@@H](O)CC(=O)O3)[C@H]21 [Lovastatin] | 0 DSS | 0 DSS | 0 DSS | 0 DSS
C[C@@H](Nc1cc(F)cc(F)c1)c1cc(C(=O)N(C)C)cc2c(=O)cc(N3CCOCC3)oc12 [AZD-8186] | 0 DSS | 0 DSS | 0 DSS | 1.7 DSS
CCn1nnc2c(N3CCOCC3)nc(-c3ccc(NC(=O)Nc4ccc(C(=O)N5CCN(C)CC5)cc4)cc3)nc21 [PKI-402] | 0 DSS | 0 DSS | 1.1 DSS | 9.4 DSS
Cc1nn(C)c(COc2ccc(N3CCN(S(=O)(=O)N(C)C)CC3)cc2)c1-c1cccc2c(CCCOc3cccc4ccccc34)c(C(=O)O)n(CCN3CCOCC3)c12 | 2.4 DSS | 7.1 DSS | 13.3 DSS | 4.2 DSS
Oc1nc(-c2ccc(C(F)(F)F)cc2)nc2c1CSCC2 [XAV-939] | 1.2 DSS | 0 DSS | 1.6 DSS | 0.5 DSS
COc1cc2ncnc(Nc3ccc(F)c(Cl)c3)c2cc1NC(=O)/C=C/CN1CCCCC1 [Dacomitinib] | 0 DSS | 4.7 DSS | 0.9 DSS | 0 DSS
Cc1cc(OCc2nnc(SC3CCCC3)n2-c2cccnc2)ccc1-c1ccc(S(C)(=O)=O)cc1 [NMS-873] | 7.6 DSS | 7.4 DSS | 6.8 DSS | 14.7 DSS
O=C(Nc1cc(Cl)cc2c1[nH]c1cnccc12)c1cccnc1 [PS-1145] | 0 DSS | 0.3 DSS | 0.9 DSS | 0.9 DSS
COc1cc2c(NC3CCN(C(C)C)CC3)nc(C3CCCCC3)nc2cc1OCCCN1CCCC1 [UNC0638] | 7 DSS | 6.8 DSS | 8.3 DSS | 6.3 DSS
Cc1c(F)cc(C(=O)NC2CC2)cc1-c1ccc(C(=O)NCC(C)(C)C)cn1 [Losmapimod] | 0 DSS | 0 DSS | 1.7 DSS | 0 DSS
O=S(=O)(c1cccc2c(O)nccc12)N1CCCNCC1 [Hydroxyfasudil] | 0 DSS | 0 DSS | 0 DSS | 0 DSS
